Source: patent US9695155B2, “Herbicidal substituted pyrimidinyloxy benzene compounds” (E. I. DU PONT DE NEMOURS AND COMPANY, priority 2013, dated 2017)

Legend:
Assay in all cases: Test F preemergence
Conditions in all cases: 21 days, scale 0 to 100
bermudagrass = format: in vivo, Cynodon dactylon
Excerpt: (§1) Seeds of plant species selected from bermudagrass (Cynodon dactylon), surinam grass (Brachiaria decumbens), large (Lg) crabgrass (Digitaria sanguinalis), crabgrass, naked (naked crabgrass, Digitaria nuda), foxtail, green (green foxtail, Setaria viridis), johnsongrass (Sorghum halepense), kochia (Kochia scoparia), morningglory (pitted morningglory, Ipomoea lacunosa), nutsedge, purple (purple nutsedge, Cyperus rotundus), ragweed (common ragweed, Ambrosia elatior), mustard, black (black mustard, Brassica nigra), guineagrass (Panicum maximum), dallisgrass (Paspalum dilatatum), barnyardgrass (Echinochloa crus-galli), sandbur (southern sandbur, Cenchrus echinatus), sowthistle (common sowthistle, Sonchus oleraceous), Italian ryegrass (Lolium multiflorum), signalgrass (broadleaf signalgrass, Brachiaria platyphylla), dayflower (Virginia (VA) dayflower, Commelina virginica), bluegrass (annual bluegrass, Poa annua), quackgrass (Elytrigia repens), mallow (common mallow, Malva sylvestris), buckwheat, wild (wild buckwheat, Polygonum convolvulus), leafy spurge (Euphorbia esula), chickweed (common chickweed, Stellaria media), wild poinsettia (Euphorbia heterophylla), and pigweed (Amaranthus retroflexus) were planted into a blend of loam soil and sand and treated preemergence with test chemicals formulated in a non-phytotoxic solvent mixture which included a surfactant.
(§2) Treated plants and controls were maintained in a greenhouse for 21 days, after which time all species were compared to controls and visually evaluated. Plant response ratings, summarized in Table F, are based on a scale of 0 to 100 where 0 is no effect and 100 is complete control. A dash (-) response means no test result.

pigweed = format: in vivo, Amaranthus retroflexus
Excerpt: as §1, §2

mustard, black = format: in vivo, Brassica nigra
Excerpt: as §1, §2

johnsongrass = format: in vivo, Sorghum halepense
Excerpt: as §1, §2

## N#Cc1cccc(Oc2ncc(F)cn2)c1-n1cc(C(F)(F)F)cn1 [Compound 79, 3-[(5-fluoro-2-pyrimidinyl)oxy]-2-[4-(trifluoromethyl)-1H-pyrazol-1-yl]benzonitrile]
bermudagrass; 16 g ai/ha
  Plant response rating, Bermudagrass: 98
bermudagrass; 31 g ai/ha
  Plant response rating, Bermudagrass: 100
bermudagrass; 62 g ai/ha
  Plant response rating, Bermudagrass: 100
bermudagrass; 125 g ai/ha
  Plant response rating, Bermudagrass: 100
bermudagrass; 250 g ai/ha
  Plant response rating, Bermudagrass: 100
pigweed; 16 g ai/ha
  Plant response rating, Pigweed: 100
pigweed; 31 g ai/ha
  Plant response rating, Pigweed: 100
pigweed; 62 g ai/ha
  Plant response rating, Pigweed: 100
pigweed; 125 g ai/ha
  Plant response rating, Pigweed: 100
pigweed; 250 g ai/ha
  Plant response rating, Pigweed: 100
mustard, black; 16 g ai/ha
  Plant response rating, Mustard, Black: 100
mustard, black; 31 g ai/ha
  Plant response rating, Mustard, Black: 100
mustard, black; 62 g ai/ha
  Plant response rating, Mustard, Black: 100
mustard, black; 125 g ai/ha
  Plant response rating, Mustard, Black: 100
mustard, black; 250 g ai/ha
  Plant response rating, Mustard, Black: 100
johnsongrass; 16 g ai/ha
  Plant response rating, Johnsongrass: 65
johnsongrass; 31 g ai/ha
  Plant response rating, Johnsongrass: 100
johnsongrass; 62 g ai/ha
  Plant response rating, Johnsongrass: 100
johnsongrass; 125 g ai/ha
  Plant response rating, Johnsongrass: 100
johnsongrass; 250 g ai/ha
  Plant response rating, Johnsongrass: 100

## N#Cc1cccc(Oc2ncc(Cl)cn2)c1-n1cc(OC(F)F)cn1 [Compound 97]
bermudagrass; 16 g ai/ha
  Plant response rating, Bermudagrass: 80
bermudagrass; 31 g ai/ha
  Plant response rating, Bermudagrass: 95
bermudagrass; 62 g ai/ha
  Plant response rating, Bermudagrass: 100
bermudagrass; 125 g ai/ha
  Plant response rating, Bermudagrass: 100
bermudagrass; 250 g ai/ha
  Plant response rating, Bermudagrass: 100
pigweed; 16 g ai/ha
  Plant response rating, Pigweed: 100
pigweed; 31 g ai/ha
  Plant response rating, Pigweed: 100
pigweed; 62 g ai/ha
  Plant response rating, Pigweed: 100
pigweed; 125 g ai/ha
  Plant response rating, Pigweed: 100
pigweed; 250 g ai/ha
  Plant response rating, Pigweed: 100
mustard, black; 16 g ai/ha
  Plant response rating, Mustard, Black: 90
mustard, black; 31 g ai/ha
  Plant response rating, Mustard, Black: 100
mustard, black; 62 g ai/ha
  Plant response rating, Mustard, Black: 100
mustard, black; 125 g ai/ha
  Plant response rating, Mustard, Black: 100
mustard, black; 250 g ai/ha
  Plant response rating, Mustard, Black: 100
johnsongrass; 16 g ai/ha
  Plant response rating, Johnsongrass: 0
johnsongrass; 31 g ai/ha
  Plant response rating, Johnsongrass: 65
johnsongrass; 62 g ai/ha
  Plant response rating, Johnsongrass: 95
johnsongrass; 125 g ai/ha
  Plant response rating, Johnsongrass: 100
johnsongrass; 250 g ai/ha
  Plant response rating, Johnsongrass: 100
